{
  "source": "patent US10130636B2",
  "about": "“High dosage strength tablets of rucaparib” (Clovis Oncology, Inc., priority 2014, dated 2018)",
  "key": {"[1]": {"conditions": "as stated in U.S. Pat. No. 8,754,072; compared to other salt forms; cited from earlier work"}, "[2]": {"assay": "Hygroscopicity of rucaparib salts", "type": "physicochemical", "conditions": "compared to other salts of rucaparib"}, "[3]": {"assay": "CTC profiles (compressibility, tabletability, compactability) of rucaparib salt intra granular formulations", "type": "physicochemical", "conditions": "for formation of compacts: pure API without excipients, maleate also at 90% loading, 100 mg compacts", "from_the_text": "The most relevant and broadly accepted approach to assessing compression evaluation of different formulations (and different API salts) is by measuring the interrelationships of compression stress, solid fraction, and tensile strength using a compaction simulator. These parameters are related to each other in a set of relationships referred to as compressibility, tabletability, and compactability profiles (i.e., CTC Profiles) (Tye, Sun, Amidon, J. Pharm. Sci, 94: 465-472, (2005)). Focus was on the intra granular blend rather than the final blend because nearly all of the lead formulation is processed through dry granulation; only a small portion is extra granular. Additionally, the extra granular lubrication step at small scale is not representative of downstream pilot or commercial processing and risks masking intrinsic compressibility properties. For the provided lot of each salt form, formulations were evaluated at 100%, 90%, 75%, and 60% of the final tablet formulation (this correlates to 100%, 90.68%, 75.57%, and 60.45% intra granular components). CTC profiles for each API and formulation were determined by compressing (Texture Technologies model TA.XT Plus Texture Analyzer), in triplicate, 1⁄4'' round flat-faced 100 mg compacts using a linear sawtooth strain profile at 5 mm/sec velocity to four pre-programmed peak forces encompassing roller compaction and tableting compression stress ranges (e.g., up to 240 MPa). The compacts were then evaluated for physical dimensions, weight, and hardness. […] The maximum acceptable compression stress considered within normal ranges of a commercial rotary tablet press is approximately 250 MPa. Similarly, a typical target tensile strength for tablets is 2 MPa; such tablets generally have low friability, and are suitable for downstream handling and film coating. Thus, if a given formulation can be compressed to a tensile strength of 2 MPa at a compression stress of less than 250 MPa, it is considered to have acceptable compressibility."}, "[4]": {"conditions": "Drug Load 60%, Compression Stress 47.9 MPa"}, "[5]": {"conditions": "Drug Load 60%, Compression Stress 80.3-80.4 MPa"}, "[6]": {"conditions": "Drug Load 60%, Compression Stress 176.0-177.0 MPa"}, "[7]": {"conditions": "Drug Load 60%, Compression Stress 239.5-240.4 MPa"}, "[8]": {"conditions": "Drug Load 75%, Compression Stress 48.3-48.5 MPa"}, "[9]": {"conditions": "Drug Load 75%, Compression Stress 80.5-80.8 MPa"}, "[10]": {"conditions": "Drug Load 75%, Compression Stress 176.8-177.8 MPa"}, "[11]": {"conditions": "Drug Load 75%, Compression Stress 240.1-240.7 MPa"}},
  "note": "Where two headings read alike, the source gives them in different places.",
  "data": [
    {"compound": "CNCc1ccc(-c2[nH]c3cc(F)cc4c3c2CCNC4=O)cc1", "note": "[Camsylate, Rucaparib Camsylate]", "values": [
      {"measurement": "hygroscopicity", "setting": "[1]", "result": "less hygroscopic"},
      {"measurement": "hygroscopicity", "setting": "[2]", "result": "low hygroscopicity"},
      {"measurement": "Tensile Strength", "setting": "[3]; [4]", "result": 0.6, "unit": "MPa"},
      {"measurement": "Tensile Strength", "setting": "[3]; [5]", "result": 1.3, "unit": "MPa"},
      {"measurement": "Tensile Strength", "setting": "[3]; [6]", "result": 2.6, "unit": "MPa"},
      {"measurement": "Tensile Strength", "setting": "[3]; [7]", "result": 3.1, "unit": "MPa"},
      {"measurement": "Tensile Strength", "setting": "[3]; [8]", "result": 0.6, "unit": "MPa"},
      {"measurement": "Tensile Strength", "setting": "[3]; [9]", "result": 1.1, "unit": "MPa"},
      {"measurement": "Tensile Strength", "setting": "[3]; [10]", "result": 2.3, "unit": "MPa"},
      {"measurement": "Tensile Strength", "setting": "[3]; [11]", "result": 2.8, "unit": "MPa"},
      {"measurement": "formation of compacts", "setting": "[3]", "result": "formed good compacts"}
    ]},
    {"compound": "Rucaparib Maleate", "values": [
      {"measurement": "hygroscopicity", "setting": "[1]", "result": "less hygroscopic"},
      {"measurement": "tabletability, fold lower than the camsylate salt", "setting": "[3]; 60 and 75% API loading", "result": "2-2.5 ×"},
      {"measurement": "Tensile Strength", "setting": "[3]; [4]", "result": 0.3, "unit": "MPa"},
      {"measurement": "Tensile Strength", "setting": "[3]; [5]", "result": 0.6, "unit": "MPa"},
      {"measurement": "Tensile Strength", "setting": "[3]; [6]", "result": 1.2, "unit": "MPa"},
      {"measurement": "Tensile Strength", "setting": "[3]; [7]", "result": 1.4, "unit": "MPa"},
      {"measurement": "Tensile Strength", "setting": "[3]; [8]", "result": 0.2, "unit": "MPa"},
      {"measurement": "Tensile Strength", "setting": "[3]; [9]", "result": 0.4, "unit": "MPa"},
      {"measurement": "Tensile Strength", "setting": "[3]; [10]", "result": 0.8, "unit": "MPa"},
      {"measurement": "Tensile Strength", "setting": "[3]; [11]", "result": 0.8, "unit": "MPa"},
      {"measurement": "drug loading needed to obtain tablets with sufficient strength", "setting": "[3]; estimated, target >70%", "result": "< 50", "unit": "%"},
      {"measurement": "formation of compacts", "setting": "[3]", "result": "not able to be formed"}
    ]}
  ]
}
